Molecular target: integrin αvβ3 (Homo sapiens, UniProt P05106+P06756)
Assay: Competitive cell-binding assay with ^125I-echistatin on U87MG cells
Conditions: SD

- IC50: 404 ± 38 nM
SMILES: CC(F)C(=O)NC[C@@H]1O[C@H](C(=O)NCCCC[C@@H]2NC(=O)[C@@H](Cc3ccccc3)NC(=O)[C@H](CC(=O)O)NC(=O)CNC(=O)[C@H](CCCNC(=N)N)NC2=O)[C@H](O)[C@H](O)[C@H]1O (stereo partly shown) [galacto-RGD, FP-SAA-c(RGDfK)]

Source: article PMC2999579 (Molecular imaging and biology : MIB : the official …, 2009)
